For orientation: IC50 means the concentration needed to halve the response being measured.

Common to all, as to type: cell-based
Data set [1] has as its system LoVo (human colon adenocarcinoma). As to the kind of experiment: Cytotoxicity test on sensitive tumour cell lines (sulforodamine B test). Particulars: 24 h incubation, survival after 48 h, ± S.D., read-out: antiproliferative activity IC50, Lovo. As for the experimental part: (§1) This test was used to evaluate the survival of the human cell lines MCF-7 (human mammary carcinoma), LoVo (human colon adenocarcinoma), and MES-SA (human uterine sarcoma). The tumour cells were incubated with the compound, at scalar concentrations, (500 μM÷0.97 μM) for 24 hours; the compound was then removed and cell survival was evaluated after 48 hours using the sulforodamine B test (J. Natl. Cancer Inst. 82, 1107–1112). The antiproliferative activity of the compounds was evaluated in terms of the IC50 (concentration of the molecule that inhibits 50% of cell survival) processed with a curve-fitting program (Am. J. Physiol. 1978., 235, E97–E102) and expressed as μM±S.D.

The test system of data set [2] is MES-SA (human uterine sarcoma). Described as above. As to conditions: 24 h incubation, survival after 48 h, ± S.D., read-out: antiproliferative activity IC50, Mes-Sa. As for the experimental part:
as §1

The test system of data set [3] is MCF-7 (human mammary carcinoma). Described as above. Particulars: 24 h incubation, survival after 48 h, ± S.D., read-out: antiproliferative activity IC50, MCF-7. As for the experimental part: as §1
Data set [4] has as its system MES-SA Dx (human uterine sarcoma). As to the kind of experiment: Cytotoxicity test on resistant tumour cell lines, tested compound alone. As to conditions: 24 h incubation, survival after 48 h, ± SD. As for the experimental part: (§2) This test was used to evaluate the survival of human cell lines resistant to doxorubicin (about 100 times) and cross-resistant to daunorubicin, actinomycin D, mitoxantrone, vincristine, vinblastin, taxol, colchicine, and etoposide.
(§3) The following cell lines were used: MCF-7-Dx (human mammary carcinoma), LoVo-Dx (human colon adenocarcinoma), MES-SA Dx (human uterine sarcoma).
(§4) Before using the association doxorubicin-tested compound, the cytotoxicity of the cells was evaluated with the tested compound (alone) as follows: the cells were incubated with the compound, at scalar concentrations (500 μM÷0.97 μM), for 24 hours; the compound was then removed and cell survival was evaluated after 48 hours with the above-mentioned sulforodamine B test. The antiproliferative activity of the compounds was evaluated in terms of IC50 (concentration of the compound that inhibits 50% of cell survival) processed with the above-mentioned curve-fitting program.

The subject of data set [5] is LoVo-Dx (human colon adenocarcinoma). The data set is described as above. As to conditions: 24 h incubation, survival after 48 h, ± SD. As for the experimental part: as §2, §3, §4
Data set [6] has as its system MCF-7-Dx (human mammary carcinoma). The data set is described as above. Particulars: 24 h incubation, survival after 48 h, ± SD. Here is the method: as §2, §3, §4
Data set [7] has as its system NB4 cells (acute promyelocytic leukaemia). Description: Cell differentiation by reduction of nitroblue tetrazolium (NBT), with suboptimal ATRA. As to conditions: combined with suboptimal doses of ATRA, NBT; for AC50: 3 days, read-out: AC50 (concentration at which the tested compound induces 50% of cell differentiation). As for the experimental part: The first line used was the NB4 cell line, bearing the t(15;17) chromosomal translocation which generates the fusion protein PML/RARα. This line is very sensitive to the differentiative action of pharmacological doses of ATRA (10^−7–10^−6 M).
The HL60 and NB4 cells were seeded at a density of 150,000 cells/ml in RPMI 1640 medium containing 10% foetal calf serum, and were treated with the tested compounds in the presence and absence of suboptimal doses of ATRA (5–10 nM for NB4 and 0.5 μM for HL60, respectively) in the dark, and returned to the incubator for 3 days without ever replacing the culture medium.
To analyse the differentiative effect of the tested compounds vs ATRA, on the third day of treatment 500,000 viable cells were harvested from each sample, centrifuged for 10 minutes at 1.000 rpm and resuspended in 1 ml of RPMI 1640 medium containing 10% foetal calf serum, 1 mg/ml of nitroblue tetrazolium (NBT) and 100 ng of PMA (phorbol 12-myristate 13-acetate).
The cells thus resuspended were incubated in the dark at 37° C. for 60 minutes.
At the end of the incubation, the cell suspension was centrifuged for 10 minutes at 10,000 rpm; the pellet obtained was then resuspended in 1 ml of PBS containing 10% Triton X-100 and sonicated to lysis.
Spectrophotometric readings of the samples were then taken at a wavelength of 540 nm: samples containing differentiated cells shifted towards a violet colour, whereas control samples and/or samples with non-differentiated cells were colourless or, at any rate, much less intensely coloured.
The AC50 (Activating Concentration) is the concentration at which the tested compound induces 50% of cell differentiation.
Fold Induction is the increase in the differentiation value of the cell sample treated with the tested compound +ATRA vs the value of the cell sample treated with ATRA alone. This value provides an indication of the ability (potency) of the tested compound to enhance ATRA induced cell differentiation.

The test system is the same in data set [8]. As to the kind of experiment: Flow cytofluorimetric analysis of cell cycle. Also noted: APOPTOSIS: unit not given here. Particulars: for APOPTOSIS / G0/G1 / G2/M / S: day 3. Here is the method:
The first line used was the NB4 cell line, bearing the t(15;17) chromosomal translocation which generates the fusion protein PML/RARα.
To assess the effect of the tested compounds on the various phases of the cell cycle, on the third day of treatment 500,000 cells were harvested, centrifuged at 1,000 rpm for 10 minutes, washed twice in PBS w/o (PBS without calcium and magnesium) and fixed in a solution of 50% PBS w/o+50% methanol/acetone (1:4 v/v) for at least 1 hour; the cells were then centrifuged as described, washed in PBS w/o and centrifuged again.
200 μl of propidium iodide 100 μg/ml and 200 μl of RNase 150 kU/mg were then added to the cell pellet.
After a 30-min incubation in the dark at room temperature, the samples were analysed by flow cytofluirometry.

Read-outs that look alike come from different tables or passages of the source.

Consider `CCCC(c1c[nH]c2cc3c(cc12)OCO3)c1c[nH]c2cc3c(cc12)OCO3` [ST 1478, 1,1-di-(5,6-methylenedioxy-indol-3-yl)-butane], for which the IC50 came out at 15.4 ± 1.8 µM in data set [1] (Homo sapiens, LoVo); 17 ± 2 µM in data set [2] (Homo sapiens, MES-SA); 11.8 ± 0.4 µM in data set [3] (Homo sapiens, MCF7); 7.8 ± 1.5 µM in data set [4] (Homo sapiens, MES-SA Dx); 10.7 ± 0.6 µM in data set [5] (Homo sapiens, LoVo/DX); 15.2 ± 1.9 µM in data set [6] (Homo sapiens, MCF7/DX).

Regarding `c1ccc2c(C(c3c[nH]c4ccccc34)C3CCCCC3)c[nH]c2c1` [ST 1487, 1,1-di-(indol-3-yl)-cyclohexylmethane], the IC50 in data set [1] stood at 24.9 ± 0.1 µM; in data set [2], 38.7 ± 0.03 µM; in data set [3], 29.9 ± 0.006 µM; in data set [4], 16 ± 3.5 µM; in data set [5] it was 27.8 ± 2.1 µM; in data set [6], 15.3 ± 1 µM.

On to `CS(=O)(=O)OCCCCC(c1c[nH]c2ccccc12)c1c[nH]c2ccccc12` [ST 1488, 1,1-di-(indol-3-yl)-5-mesyloxy-pentane], for which the IC50 in data set [1] (Homo sapiens, LoVo) came out at 11 ± 1.6 µM; in data set [2] (Homo sapiens, MES-SA), 15.8 ± 1.8 µM; in data set [3] (Homo sapiens, MCF7), 13.4 ± 2.2 µM; in data set [4] (Homo sapiens, MES-SA Dx) it was 10.3 ± 1.9 µM; in data set [5] (Homo sapiens, LoVo/DX) it was 18.1 ± 0.6 µM; in data set [6] (Homo sapiens, MCF7/DX), 9.7 ± 1.3 µM.

For `OCCCC(c1c[nH]c2ccccc12)c1c[nH]c2ccccc12` [ST 1707, 1,1-di(indol-3-yl)-4-hydroxy-butane], the AC50 in data set [7] (Homo sapiens, NB-4, 72 h) is 8.3 ± 0.05 µM. For the same compound, in data set [7], the “fold induction (differentiation, compound + ATRA vs ATRA alone)” value is on record as 2.5. Also, the APOPTOSIS in data set [8] (compound 1 μM + ATRA 0.01 μM) came to 17.0; in data set [8] (compound 5 μM + ATRA 0.01 μM), 14.0; in data set [8] (compound 10 μM + ATRA 0.01 μM), 13.0; in data set [8] (compound 50 μM + ATRA 0.01 μM), 11.5; in data set [8] (compound alone 1 μM), 17.0; in data set [8] (compound alone 5 μM) it was 19.5. Besides, the results for the APOPTOSIS in data set [8] (compound alone 10 μM) and in data set [8] (compound alone 50 μM) were 17.5 and 17.0, respectively. In addition, the G0/G1 in data set [8] (compound 1 μM + ATRA 0.01 μM) is recorded as 65.4; in data set [8] (compound 5 μM + ATRA 0.01 μM), 69.8; in data set [8] (compound 10 μM + ATRA 0.01 μM), 70.4; in data set [8] (compound 50 μM + ATRA 0.01 μM), 80.6; in data set [8] (compound alone 1 μM) it was 51.7; in data set [8] (compound alone 5 μM), 52.5. Moreover, the G0/G1 in data set [8] (compound alone 10 μM) worked out at 52.2; in data set [8] (compound alone 50 μM) it was 52.0. For the same compound, the G2/M in data set [8] (compound 1 μM + ATRA 0.01 μM) amounted to 11.8; in data set [8] (compound 5 μM + ATRA 0.01 μM), 11.3; in data set [8] (compound 10 μM + ATRA 0.01 μM), 11.5; in data set [8] (compound 50 μM + ATRA 0.01 μM), 9.0; in data set [8] (compound alone 1 μM), 10.1; in data set [8] (compound alone 5 μM), 11.1. The G2/M in data set [8] (compound alone 10 μM) amounted to 10.8; in data set [8] (compound alone 50 μM), 12.0. Besides, the S in data set [8] (compound 1 μM + ATRA 0.01 μM) is listed as 22.8; in data set [8] (compound 5 μM + ATRA 0.01 μM), 18.9; in data set [8] (compound 10 μM + ATRA 0.01 μM) it was 18.1; in data set [8] (compound 50 μM + ATRA 0.01 μM), 10.4; in data set [8] (compound alone 1 μM), 38.2; in data set [8] (compound alone 5 μM) it was 36.4. The S in data set [8] (compound alone 10 μM) stood at 37.0; in data set [8] (compound alone 50 μM), 36.0. In addition, the “effect of the compound alone on cell cycle and apoptosis (in words)” value in data set [8] (compound alone (ST 1346: high doses)) is “does not induce apoptosis”.

`O=C(O)CCC(c1c[nH]c2ccccc12)c1c[nH]c2ccccc12` [ST 1961, 4,4-di-(1H-indolyl-)butanoic acid]: in data set [7], the AC50 came to 6.6 ± 2 µM and the “fold induction (differentiation, compound + ATRA vs ATRA alone)” value was determined as 1.4. In data set [8] (compound alone 1 μM), this compound had an APOPTOSIS of 18.5, a G0/G1 of 47.5, a G2/M of 15.6 and an S of 36.9. For the same compound, in data set [8] (compound alone 5 μM), the APOPTOSIS was determined as 24.0, the G0/G1 was determined as 49.7, the G2/M is 13.0 and the S is 37.3. In addition, in data set [8] (compound alone 10 μM), the APOPTOSIS is on record as 24.0, the G0/G1 was 48.4, the G2/M is 14.1 and the S stood at 37.5. Further, in data set [8] (compound alone 50 μM), the APOPTOSIS came out at 24.0, the G0/G1 came out at 56.3, the G2/M was 14.0 and the S is given as 29.7.

These data come from US7084166B2, “Bis-heterocyclic compounds with antitumour and chemosensitising activity” (Sigma-Tau Industrie Farmaceutichee Riunite S.p.A., priority 2000, dated 2006).
